Four molecules from patent US20080003305A1, “PROCESS AND COMPOSITIONS FOR THE DISINFECTION OF WATERS” (BROMINE COMPOUNDS LIMITED, priority 1991, published 2008) can be followed below.

Data set [1] concerns survivors in water taken from a citrus juice evaporator. Description: Efficacy in water taken from a citrus juice evaporator; comparison to non-oxidizing biocides. The class given is cell-based. Conditions: dose 30 mg/l. As for the experimental part:
Efficacy of NH4Cl+NaOCl in Water Taken from a Citrus Juice Evaporator; Comparison to Non-Oxidizing Biocides
Water demand: higher than 30 ppm of Cl2 (out of 30 ppm Cl2) within 60 minutes.
Concentration of stock solution (NH4Cl+NaOCl): 1000 ppm.
Algicol II is a quaternary ammonium salt.

Data set [2] deals with MOs in starch sizing mixture. The data set is described as follows: Efficacy of oxidizing and non-oxidizing biocides in a starch sizing mixture (paper industry). As to conditions: 30 ppm active ingredient, 60° C.; for Surviving MOs after time (hours): 4: 4 hours; for Surviving MOs after time (hours): 28: 28 hours; for Surviving MOs after time (hours): 48: 48 hours; for Surviving MOs after time (hours): 72: 72 hours. The class given is cell-based. As for the experimental part:
Efficacy of Oxidizing and Non-Oxidizing Biocides is a Starch Sizing Mixture (Paper Industry)
Efficacy was measured at 60° C.
NH4Br+NaOCl: stock concentration 0.1%.
Dosage: 30 ppm active ingredient.
Incubation temperature 60° C.

The test system of data set [3] is total aerobic viable counts. The data set is described as follows: Efficacy of oxidizing biocides in water taken from a paper mill (thick stock of pulp slurry). The class given is cell-based. As to conditions: 15 mg/l as Cl2; 30 minutes. As for the experimental part:
Efficacy of Oxidizing Biocides in Water Taken from a Paper Mill (Thick Stock of Pulp Slurry)
Microorganisms were incubated at 37° C. (total aerobic viable counts).
Concentration of stock solution: 0.1% as Cl2.

Data set [4] relates to fungi. Description: Efficacy in domestic waste containing a high concentration of amines: fungi. The class given is cell-based. Conditions: 60 ppm; contact time 10 minutes; N as NH3 50mg/l; pH 6.10. As for the experimental part: (§1) Efficacy of a Series of Biocides in Domestic Waste Containing a High Concentration of Amines
(§2) Incubation temperature: 27° C.
(§3) Stock concentration: 0.2%

Data set [5] in a line: Residue as Cl2 in domestic waste containing a high concentration of amines. As to conditions: 60 ppm. The class given is physicochemical. As for the experimental part: as §1, §2, §3
Data set [6] deals with aerob. MOs. Description: Efficacy in domestic waste containing a high concentration of amines: aerobic MOs. The class given is cell-based. Conditions: 60 ppm; contact time 10 minutes; N as NH3 50mg/l; pH 6.10. As for the experimental part:
as §1, §2, §3

Data set [7] concerns Pseudomonas sp. Description: Efficacy of biocides in the presence of anti-scale and corrosion inhibiting treatment (CWC). It is filed as cell-based. As to conditions: dose 4 mg/l; pH 9.0; contact time 6 hours. From the text:
Efficacy of Biocides in the Presence of Anti-Scale and Corrosion Inhibiting Treatment (CWC)
Stock concentration: 0.5% as Cl2
Efficacy against pseudomonas sp.

Data set [8] relates to anaer. MOs. Description: Efficacy in domestic waste containing a high concentration of amines: anaerobic MOs. It is filed as cell-based. Conditions: 60 ppm; contact time 10 minutes; N as NH3 50mg/l; pH 6.10. As for the experimental part:
as §1, §2, §3

For data set [9], the system named is biofilm, slime and algae growth. Description: Field experiment, cooling tower 2 (corn processing plant). As to conditions: BCDMH 1.50-2.26 kg/day daily. As for the experimental part:
• Corn processing plant. • Contained volume: 20 m^3 • Circulation rate: 300 m^3/h • pH: 7.5-8.0 • Water temperature: 36° C.-57° C.
This tower was treated with BCDMH (1.50-2.26 kg/day) daily. Due to a very high organic load in the water, growth of biofilm was very fast.

The subject of data set [10] is biofouling and growth of algae. The data set is described as follows: Field experiment, cooling tower 1. As for the experimental part: • Cooling tower; contained volume 1000 m^3 • Circulation rate 500 m^3/h • Scale and corrosion inhibitor: CWC: 100 mg/l
The tower was controlled on low level (0.6-1.2 kg/day) of BCDMH feed. Use of BCDMH was effective as long as make-ups were softened in ion-exchangers.
The system was shock-fed with NH4Br+NaOCl. Overall dosage: 75 liters NaOCl (10%) 12.6 kg NH4Br. The mixture was fed during 1.5 hours.
A slug dose of 25 liters NaOCl (10% as Cl2) (+4.2 kg NH4Br) was then fed to the cooling tower once in two to three days. […] A measurable residue of 0.6-0.4 ppm (as total chlorine) was measured in the water 24 and 48 hours after feeding the mixture.

Take `N#CSCSC#N` [MBT]: the “Survivors after time (hours): 1” value in data set [1] (1 hour) is listed as 1 × 10^6 cfu/ml. The “Survivors after time (hours): 24” value in [1] (24 hours) was 1 × 10^3 cfu/ml. In addition, the “Survivors after time: 7 days” value in data set [1] (7 days) is given as 8 × 10^2 cfu/ml. In data set [2], the “Surviving MOs after time (hours): 4” value was 9 × 10^4 cfu/ml, the “Surviving MOs after time (hours): 28” value is 4 × 10^4 cfu/ml, the “Surviving MOs after time (hours): 48” value is 2 × 10^4 cfu/ml and the “Surviving MOs after time (hours): 72” value was 2 × 10^4 cfu/ml.

With `N#CC(Br)(Br)C(N)=O` [DBNPA], the “Viable counts after time (minutes): 30” value in data set [3] is 2 × 10^3 cfu/ml. In addition, the “Surviving MOs after 10 minutes fungi” value in [4] amounted to 0 cfu/ml. For the same molecule, in [2], the “Surviving MOs after time (hours): 4” value is given as 3 × 10^4 cfu/ml, the “Surviving MOs after time (hours): 28” value is listed as 2 × 10^5 cfu/ml, the “Surviving MOs after time (hours): 48” value is recorded as 2 × 10^5 cfu/ml and the “Surviving MOs after time (hours): 72” value is reported as 1 × 10^5 cfu/ml. Moreover, the “Residue free as Cl2 after 10 minutes” value in data set [5] (free) is recorded as 0 (0). For the same molecule, the “Residue (total) as Cl2 after 10 minutes” value in data set [5] (total) is recorded as 0 (0). The “Surviving MOs after 10 minutes aerob.” value in [6] is recorded as 2 × 10^6 cfu/ml. Moreover, in data set [7], the “Survivors in CWC (100 mg/l)” value is recorded as 4 × 10^6 and the Survivors in buffer worked out at 0. Besides, the “Surviving MOs after 10 minutes anaer.” value in data set [8] was 5 × 10^5 cfu/ml.

`CC1(C)C(=O)N(Cl)C(=O)N1Br` [BCDMH]: in data set [7], the “Survivors in CWC (100 mg/l)” value is recorded as 3 × 10^5 and the Survivors in buffer is recorded as 0. Besides, in data set [9], the “control of daily grown films” value is reported as “effective in controlling the daily grown films” and the “efficacy against heavy slimes covering the cooling tower” value is “not effective against heavy slimes”. Besides, in data set [10] (BCDMH 4-6 kg/day, CWC (100 mg/l of phosphonate)), the “prevention of biofouling and growth of algae” value is “did not suffice to prevent biofouling and growth of algae”. Besides, the “control of the tower” value in [10] (BCDMH feed 0.6-1.2 kg/day, make-ups softened in ion-exchangers) was “effective”.

For `Cn1sccc1=O` [MIT], in [2], the “Surviving MOs after time (hours): 4” value is reported as 2 × 10^4 cfu/ml, the “Surviving MOs after time (hours): 28” value is 2 × 10^3 cfu/ml, the “Surviving MOs after time (hours): 48” value is on record as 2 × 10^3 cfu/ml and the “Surviving MOs after time (hours): 72” value is reported as 1 × 10^3 cfu/ml.
